Reference: ChEMBL document CHEMBL3885861, “Open TG-GATES”

Species: Rattus norvegicus
Experiment: Open TG-GATES - Regimen: Single
Format: toxicity, organism-based, Sprague-Dawley
Set-up: regimen Single, gender Male, age 6 weeks
Settings: in vivo, po, 0 mg/kg, route gavage, dose level Control; for APTT / Bas / Eos / Fbg / Hb / Ht / Lym / MCH / MCHC / MCV / Mono / Neu / PT / Plat / RBC / Ret / WBC: tissue Blood; for KIDNEY_L / KIDNEY_R / KIDNEY_TOTAL: tissue Kidney; for LIVER: tissue Liver; for A/G / ALP / ALT / AST / BUN / CRE / Ca / Cl / DBIL / GLC / IP / K / LDH / Na / PL / RALB / TBIL / TC / TG / TP / gamma-GTP: tissue Plasma

Compound: CN(C)CCN(Cc1cccs1)c1ccccn1
- TERMINAL_BW (3 h): 183.4 g
- APTT (3 h): 20.4 s
- Bas (3 h): 0%
- Eos (3 h): 0.4%
- Fbg (3 h): 308 mg/dL
- Hb (3 h): 13.1 g/dL
- Ht (3 h): 40.4%
- Lym (3 h): 76.8%
- MCH (3 h): 20.9 pg
- MCHC (3 h): 32.5%
- MCV (3 h): 64.2 fL
- Mono (3 h): 2.4%
- Neu (3 h): 20%
- PT (3 h): 16.5 s
- Plat (3 h): 124.4 x10_4/uL
- RBC (3 h): 629.4 x10_4/ul
- Ret (3 h): 7.8%
- WBC (3 h): 76.5 x10_2/uL
- KIDNEY_L (3 h): 0.8 g
- KIDNEY_R (3 h): 0.9 g
- KIDNEY_TOTAL (3 h): 1.7 g
- LIVER (3 h): 8.4 g
- A/G (3 h): 1.2
- ALP (3 h): 1580.4 IU/L
- ALT (3 h): 41.4 IU/L
- AST (3 h): 72.8 IU/L
- BUN (3 h): 14.4 mg/dL
- CRE (3 h): 0.2 mg/dL
- Ca (3 h): 10.3 mg/dL
- Cl (3 h): 107.4 meq/L
- DBIL (3 h): 0 mg/dL
- GLC (3 h): 181.8 mg/dL
- IP (3 h): 7.7 mg/dL
- K (3 h): 4.2 meq/L
- LDH (3 h): 227 IU/L
- Na (3 h): 142.8 meq/L
- PL (3 h): 127.6 mg/dL
- RALB (3 h): 2.9 g/dL
- TBIL (3 h): 0.008 mg/dL
- TC (3 h): 70.4 mg/dL
- TG (3 h): 42.6 mg/dL
- TP (3 h): 5.3 g/dL
- gamma-GTP (3 h): 1 IU/L
- TERMINAL_BW (6 h): 186.2 g
- APTT (6 h): 20.7 s
- Bas (6 h): 0%
- Eos (6 h): 0.4%
- Fbg (6 h): 303 mg/dL
- Hb (6 h): 12.6 g/dL
- Ht (6 h): 38.6%
- Lym (6 h): 84.6%
- MCH (6 h): 21 pg
- MCHC (6 h): 32.7%
- MCV (6 h): 64.1 fL
- Mono (6 h): 1.6%
- Neu (6 h): 12.4%
- PT (6 h): 17.2 s
- Plat (6 h): 119.7 x10_4/uL
- RBC (6 h): 603 x10_4/ul
- Ret (6 h): 7.8%
- WBC (6 h): 97.9 x10_2/uL
- KIDNEY_L (6 h): 0.9 g
- KIDNEY_R (6 h): 0.9 g
- KIDNEY_TOTAL (6 h): 1.7 g
- LIVER (6 h): 8.3 g
- A/G (6 h): 1.2
- ALP (6 h): 1742 IU/L
- ALT (6 h): 37.4 IU/L
- AST (6 h): 68.4 IU/L
- BUN (6 h): 10.8 mg/dL
- CRE (6 h): 0.2 mg/dL
- Ca (6 h): 10 mg/dL
- Cl (6 h): 106.2 meq/L
- DBIL (6 h): 0 mg/dL
- GLC (6 h): 174.2 mg/dL
- IP (6 h): 9 mg/dL
- K (6 h): 4.1 meq/L
- LDH (6 h): 171.6 IU/L
- Na (6 h): 141.8 meq/L
- PL (6 h): 127.2 mg/dL
- RALB (6 h): 2.9 g/dL
- TBIL (6 h): 0.016 mg/dL
- TC (6 h): 74.8 mg/dL
- TG (6 h): 44.6 mg/dL
- TP (6 h): 5.3 g/dL
- gamma-GTP (6 h): 1 IU/L
- TERMINAL_BW (9 h): 180.7 g
- APTT (9 h): 20.7 s
- Bas (9 h): 0%
- Eos (9 h): 0.8%
- Fbg (9 h): 296.8 mg/dL
- Hb (9 h): 13 g/dL
- Ht (9 h): 39.3%
- Lym (9 h): 82.2%
- MCH (9 h): 21.1 pg
- MCHC (9 h): 33.1%
- MCV (9 h): 63.9 fL
- Mono (9 h): 1.6%
- Neu (9 h): 14.8%
- PT (9 h): 15.6 s
- Plat (9 h): 121.1 x10_4/uL
- RBC (9 h): 615.8 x10_4/ul
- Ret (9 h): 7.7%
- WBC (9 h): 69.3 x10_2/uL
- KIDNEY_L (9 h): 0.8 g
- KIDNEY_R (9 h): 0.8 g
- KIDNEY_TOTAL (9 h): 1.6 g
- LIVER (9 h): 7.3 g
- A/G (9 h): 1.2
- ALP (9 h): 1371.8 IU/L
- ALT (9 h): 33.8 IU/L
- AST (9 h): 66.4 IU/L
- BUN (9 h): 11.2 mg/dL
- CRE (9 h): 0.2 mg/dL
- Ca (9 h): 10.1 mg/dL
- Cl (9 h): 106.8 meq/L
- DBIL (9 h): 0 mg/dL
- GLC (9 h): 177.8 mg/dL
- IP (9 h): 9.6 mg/dL
- K (9 h): 4.2 meq/L
- LDH (9 h): 171.2 IU/L
- Na (9 h): 142.4 meq/L
- PL (9 h): 133.2 mg/dL
- RALB (9 h): 2.9 g/dL
- TBIL (9 h): 0.018 mg/dL
- TC (9 h): 73.4 mg/dL
- TG (9 h): 59.4 mg/dL
- TP (9 h): 5.3 g/dL
- gamma-GTP (9 h): 1 IU/L
- TERMINAL_BW (24 h): 200.8 g
- APTT (24 h): 20.1 s
- Bas (24 h): 0%
- Eos (24 h): 0.8%
- Fbg (24 h): 280.8 mg/dL
- Hb (24 h): 12.9 g/dL
- Ht (24 h): 39.1%
- Lym (24 h): 79.2%
- MCH (24 h): 21.2 pg
- MCHC (24 h): 33%
- MCV (24 h): 64.3 fL
- Mono (24 h): 2.4%
- Neu (24 h): 17%
- PT (24 h): 16.5 s
- Plat (24 h): 120.3 x10_4/uL
- RBC (24 h): 608.2 x10_4/ul
- Ret (24 h): 8%
- WBC (24 h): 89.7 x10_2/uL
- KIDNEY_L (24 h): 0.9 g
- KIDNEY_R (24 h): 0.9 g
- KIDNEY_TOTAL (24 h): 1.8 g
- LIVER (24 h): 9.4 g
- A/G (24 h): 1.2
- ALP (24 h): 1802.6 IU/L
- ALT (24 h): 41.6 IU/L
- AST (24 h): 71.8 IU/L
- BUN (24 h): 16.8 mg/dL
- CRE (24 h): 0.2 mg/dL
- Ca (24 h): 11 mg/dL
- Cl (24 h): 105.6 meq/L
- DBIL (24 h): 0.002 mg/dL
- GLC (24 h): 188 mg/dL
- IP (24 h): 7.4 mg/dL
- K (24 h): 4.4 meq/L
- LDH (24 h): 206.4 IU/L
- Na (24 h): 142.4 meq/L
- PL (24 h): 149.8 mg/dL
- RALB (24 h): 3 g/dL
- TBIL (24 h): 0.018 mg/dL
- TC (24 h): 77.8 mg/dL
- TG (24 h): 92.6 mg/dL
- TP (24 h): 5.4 g/dL
- gamma-GTP (24 h): 1 IU/L
